Measurements from the supplement of paper PMC11061612.

Columns and labels:
Assay in all cases: combination Emax (second highest fraction inhibited in the dose matrix, 72 h); higher = more inhibition; extreme values may be limits of the assay
EW-18 (Ewing's Sarcoma) = system: EW-18 (Ewing's Sarcoma)
Outline: (§1)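 Cell lines in DMEM/F12 or RPMI with 10% FBS were plated in 1536-well plates, held 24 hours at 37°C, 5% CO2, then given two-drug dose matrices for 72 hours (DMSO typically 0.2%). Viability was read by CellTiter-Glo 2.0 luminescence and scaled as inhibition from 0 (vehicle wells) to 1 (blank wells). Combination Emax is the second-highest inhibition in the matrix; Bliss excess is observed combination effect minus expected EA + EB − EA·EB, EA and EB being single-agent effects.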

IMR-5 (Neuroblastoma) = system: IMR-5 (Neuroblastoma)
Outline: as §1

[1] = system: KLE (Endometrial Carcinoma)
Outline: as §1

[2] = system: HSC-2 (Oral Cavity Carcinoma)
Outline: as §1

U-87-MG (Glioblastoma) = system: U-87-MG (Glioblastoma)
Outline: as §1

NB7 (Neuroblastoma) = system: NB7 (Neuroblastoma)
Outline: as §1

EW-13 (Ewing's Sarcoma) = system: EW-13 (Ewing's Sarcoma)
Outline: as §1

BT-20 (Breast Carcinoma) = system: BT-20 (Breast Carcinoma)
Outline: as §1

[3] = system: HC-1 (Other Blood Carcinomas)
Outline: as §1

[4] = system: MFE-319 (Endometrial Carcinoma)
Outline: as §1

RPMI-7951 (Melanoma) = system: RPMI-7951 (Melanoma)
Outline: as §1

[5] = system: TGBC11TKB (Gastric Carcinoma)
Outline: as §1

A704 (Kidney Carcinoma) = system: A704 (Kidney Carcinoma)
Outline: as §1

[6] = system: EBC-1 (Squamous Cell Lung Carcinoma)
Outline: as §1

[7] = system: HuP-T3 (Pancreatic Carcinoma)
Outline: as §1

[8] = system: NCI-N87 (Gastric Carcinoma)
Outline: as §1

[9] = system: NCI-H1573 (Lung Adenocarcinoma)
Outline: as §1

[10] = system: SNU-C1 (Colorectal Carcinoma)
Outline: as §1

EW-3 (Ewing's Sarcoma) = system: EW-3 (Ewing's Sarcoma)
Outline: as §1

[11] = system: H-EMC-SS (Chondrosarcoma)
Outline: as §1

Row | Structure (SMILES) | combination Emax (EW-18 (Ewing's Sarcoma)) | combination Emax (IMR-5 (Neuroblastoma)) | combination Emax [1] | combination Emax [2] | combination Emax (U-87-MG (Glioblastoma)) | combination Emax (NB7 (Neuroblastoma)) | combination Emax (EW-13 (Ewing's Sarcoma)) | combination Emax (BT-20 (Breast Carcinoma)) | combination Emax [3] | combination Emax [4] | combination Emax (RPMI-7951 (Melanoma)) | combination Emax [5] | combination Emax (A704 (Kidney Carcinoma)) | combination Emax [6] | combination Emax [7] | combination Emax [8] | combination Emax [9] | combination Emax [10] | combination Emax (EW-3 (Ewing's Sarcoma)) | combination Emax [11]
1 | COc1nnc2ccc(N3CCC(c4ccc(OCCN5CCN(C)C(=O)[C@H]5C)cc4)CC3)nn12 [AZD5153] + CC1(C)CCC(CN2CCN(c3ccc(C(=O)NS(=O)(=O)c4ccc(NCC5CCOCC5)c([N+](=O)[O-])c4)c(Oc4cnc5[nH]ccc5c4)c3)CC2)=C(c2ccc(Cl)cc2)C1 [Venetoclax] (first compound max 1 µM, 7x7, partner max 1 µM) | 0.615 | 0.885 | 0.609 | 0.662 | 0.546 | 0.37 | 0.481 | 0.138 | 0.557 | 0.324 | 0.559 | 0.324 | 0.585 | 0.802 | 0.517 | 0.592 | 0.356 | 0.46 | 0.751 | 0.27
2 | COc1nnc2ccc(N3CCC(c4ccc(OCCN5CCN(C)C(=O)[C@H]5C)cc4)CC3)nn12 [AZD5153] + CCN(CCO)CCCOc1ccc2c(Nc3cc(CC(=O)Nc4cccc(F)c4)[nH]n3)ncnc2c1 [AZD2811] (first compound max 1 µM, 7x7, partner max 1 µM) | 0.768 | 1 | 0.674 | 0.662 | 0.603 | 0.441 | 0.362 | 0.185 | 0.572 | 0.535 | 0.613 | 0.311 | 0.497 | 0.764 | 0.597 | 0.547 | 0.412 | 0.531 | 0.626 | 0.248
3 | COc1nnc2ccc(N3CCC(c4ccc(OCCN5CCN(C)C(=O)[C@H]5C)cc4)CC3)nn12 [AZD5153] + C[C@@H]1COCCN1C2=NC(=NC(=C2)C3(CC3)[S@](=N)(=O)C)C4=C5C=CNC5=NC=C4 [AZD6738] (first compound max 1 µM, 7x7, partner max 10 µM) | 0.781 | 1 | 0.737 | 0.79 | 0.698 | 0.589 | 0.831 | 0.399 | 0.713 | 0.785 | 0.925 | 0.801 | 0.681 | 0.798 | 0.705 | 0.766 | 0.709 | 0.693 | 0.851 | 0.321
4 | COc1nnc2ccc(N3CCC(c4ccc(OCCN5CCN(C)C(=O)[C@H]5C)cc4)CC3)nn12 [AZD5153] + Cc1c2c(nn1C)CSCc1cc(n(C)n1)CSc1cc(c3ccccc3c1)OCCCc1c(C(=O)O)n(C)c3c-2c(Cl)ccc13 [AZD5991] (first compound max 1 µM, 7x7, partner max 1 µM) | 0.938 | 1 | 0.668 | 0.963 | 0.559 | 0.875 | 0.68 | 0.787 | 0.753 | 0.985 | 0.825 | 0.789 | 0.545 | 0.862 | 0.534 | 0.551 | 0.673 | 0.637 | 0.908 | 0.345
5 | COc1nnc2ccc(N3CCC(c4ccc(OCCN5CCN(C)C(=O)[C@H]5C)cc4)CC3)nn12 [AZD5153] + Cn1cnc2c(F)c(Nc3ccc(Br)cc3Cl)c(C(=O)NOCCO)cc21 [Selumetinib] (first compound max 1 µM, 7x7, partner max 10 µM) | 0.59 | 0.906 | 0.631 | 0.737 | 0.698 | 0.45 | 0.315 | 0.302 | 0.506 | 0.579 | 0.677 | 0.683 | 0.855 | 1 | 0.692 | 0.567 | 0.755 | 0.83 | 0.629 | 0.368
6 | Cc1c2c(nn1C)CSCc1cc(n(C)n1)CSc1cc(c3ccccc3c1)OCCCc1c(C(=O)O)n(C)c3c-2c(Cl)ccc13 [AZD5991] + C1CN(CCC1(C(=O)N[C@@H](CCO)C2=CC=C(C=C2)Cl)N)C3=NC=NC4=C3C=CN4 [Capivasertib] (first compound max 1 µM, 7x7, partner max 3 µM) | 0.95 | 1 | 0.267 | 0.976 | 0.372 | 0.609 | 0.432 | 0.867 | 0.588 | 0.776 | 0.986 | 0.472 | 0.306 | 0.287 | 0.228 | 0.422 | 0.264 | 0.576 | 0.649 | 0.647
